Entries after “also recorded” stand apart in the source; their conditions may differ.
Key:
Format in all cases: cell-based, human
[1] = tested on: non-synovial control cancer cell lines (293T, A549, G401); test: Growth of non-synovial control cancer cell lines (crystal violet staining, colony imaging); conditions: 1 μM or indicated doses (FIGS. 5-7)
Procedure: (§1) Cells were treated with DMSO or the BRD9 degrader, Compound 1, at indicated concentrations, and proliferation was monitored from day 7 to day 14 by measuring confluency over time using an IncuCyte live cell analysis system (FIG. 5). Growth medium and compounds were refreshed every 3-4 days.
(§2) Cells were seeded into 12-well plates and treated with DMSO, 1 μM BRD9 inhibitor, Compound 2 (also known as BI-7273, see Martin et al, J Med Chem. 59(10):4462-4475 (2016); see structure of compound 2 below), or 1 μM BRD9 degrader, Compound 1.
(§3) The number of cells was optimized for each cell line. Growth medium and compounds were refreshed every 3-5 days. SYO1, Yamato, A549, 293T and HS-SY-II cells were fixed and stained at day 11. ASKA cells were fixed and stained at day 23. Staining was done by incubation with crystal violet solution (0.5 g Crystal Violet, 27 ml 37% Formaldehyde, 100 mL 10×PBS, 10 mL Methanol, 863 dH2O to 1 L) for 30 minutes followed by 3× washes with water and drying the plates for at least 24h at room temperature. Subsequently plates were scanned on an Odyssey CLx Imaging system (FIG. 6).
(§4) Cells were seeded into 96-well ultra low cluster plate (Costar, #7007) in 200 μL complete media and treated at day 2 with DMSO, Staurosporin, or BRD9 degrader, Compound 1, at indicated doses (FIG. 7).

[2] = tested on: synovial sarcoma cell lines (SYO1, Yamato, HS-SY-II, and ASKA); test: Growth of synovial sarcoma cell lines (IncuCyte confluency, crystal violet staining, colony imaging); conditions: 1 μM or indicated concentrations (FIGS. 5-7)
Procedure: as §1, §2, §3, §4

[3] = tested on: non-synovial control cancer cell lines (RD, HCT116, and Calu6); test: Growth of non-synovial control cancer cell lines, daily treatment, crystal violet at day 14; conditions: treated daily, day 14 (FIG. 9)
Procedure: (§5) Procedure: Cells were seeded into 6-well or 12-well plates and were treated daily with a BRD9 degrader (Compound 1), a bromo-domain BRD9 binder (Compound 2), E3 ligase binder (lenalidomide), DMSO, or staurosporin (positive control for cell killing), at indicated concentrations. The number of cells was optimized for each cell line. Growth media was refreshed every 5 days. By day 14, medium was removed, cells were washed with PBS, and stained using 500 μL of 0.005% (w/v) crystal violet solution in 25% (v/v) methanol for at least 1 hour at room temperature.

[4] = tested on: synovial sarcoma cell lines (SYO1, HS-SY-II, and ASKA); test: Growth of synovial sarcoma cell lines, daily treatment, crystal violet at day 14; conditions: treated daily, day 14 (FIG. 8)
Procedure: as §5

SYO1 cells [5] = test: Apoptosis assay (Annexin V-FITC) in SYO1 cells; conditions: SYO1, 200 nM or 1 μM, 8 days, compared to DMSO controls
Procedure: (§6) Procedure: SYO1 cells were treated for 8 or 13 days with DMSO, a BRD9 degrader (Compound 1) at 200 nM or 1 μM, or an E3 ligase binder (lenalidomide) at 200 nM. Compounds were refreshed every 5 days. Cell cycle analysis was performed using the Click-iT™ Plus EdU Flow Cytometry Assay (Invitrogen). The apoptosis assay was performed using the Annexin V-FITC Apoptosis Detection Kit (Sigma A9210).

SYO1 cells [6] = test: Cell cycle analysis (Click-iT Plus EdU flow cytometry) in SYO1 cells; conditions: SYO1, 200 nM or 1 μM, 8 or 13 days, compared to DMSO and lenalidomide
Procedure: as §6

Row | Compound | inhibition of cell growth [1] | inhibition of cell growth [2] | inhibition of cell growth [3] | inhibition of cell growth [4] | early- and late-apoptotic cells (SYO1 cells [5]) | cells in the S-phase of the cell cycle (SYO1 cells [6])
1 | COc1cc(-c2cn(C)c(=O)c3cnccc23)cc(OC)c1CN(C)C [Compound 2] | does not result in inhibition of the growth | inhibition of the growth of the cells | did not result in inhibition of the growth | inhibition of the growth of the cells | – | –
2 | COc1cc(-c2cn(C)c(=O)c3cnccc23)cc(OC)c1CN(C)CC(=O)NCCOCCOCCNc1cccc2c1C(=O)N(C1CCC(=O)NC1=O)C2=O (stereo not shown) [Compound 1] | does not result in inhibition of the growth | inhibition of the growth of the cells | did not result in inhibition of the growth | inhibition of the growth of the cells; also recorded: most significant growth inhibition | increased numbers of early- and late-apoptotic cells | reduced numbers of cells in the S-phase
